The values that follow are results of earlier work, collected in patent publication US9629360B2, “Water-based pesticidal suspension” (priority 2010, dated 2017).

Molecules are shown by their SMILES. In brackets after ≈: the same amount, converted by molar mass.

The conditions of the data set: 20° C.

For orientation: aqueous solubility means the dissolved amount per volume that the medium holds. Consider `Cc1nc(N(C)C)nc(OC(=O)N(C)C)c1C` [pirimicarb], for which the aqueous solubility is 3100 µg/mL (≈ 13 mM). As to `COP(=O)(OC)SCn1c(=O)oc2cc(Cl)cnc21` [azamethiphos], the aqueous solubility was 1100 µg/mL (≈ 3.39 mM).
